In US20040029823A1, “Antisense oligonucleotide compositions and methods for the modulation of JNK proteins” (priority 1997, published 2004):
“And” between values parts separate entries of the source, which are not always exact repeats. Identical values can stand only once. e = 2'-O-(2-methoxyethyl) (MOE); [5mC] = 5-methylcytosine; d = 2'-deoxy (DNA)

Legend:
Assay type in all cases: cell-based, human
HUVEC = assay: Apoptosis in HUVEC (percent hypodiploid cells, flow cytometry)
JNK1 mRNA = assay: Northern assay of JNK1 mRNA expression in A549 cells; details: for RNA % Control / RNA % Inhibition: 300 nM for 20 hours then 200 nM for 4 hours
Method: (§1) In order to evaluate the activity of potential JNK-modulating oligonucleotides, human lung carcinoma cell line A549 (American Type Culture Collection, Rockville, Md. No. ATCC CCL-185) cells or other cell lines as indicated in the Examples, were grown and treated with oligonucleotides or control solutions as detailed below. After harvesting, cellular extracts were prepared and examined for specific JNK mRNA levels or JNK protein levels (i.e., Northern or Western assays, respectively). In all cases, “% expression” refers to the amount of JNK-specific signal in an oligonucleotide-treated cell relative to an untreated cell (or a cell treated with a control solution that lacks oligonucleotide), and “% inhibition” is calculated as
100%−% Expression =% Inhibition.
Northern Assays: The mRNA expression of each JNK protein was determined by using a nucleic acid probe specifically hybridizable thereto. Nucleic acid probes specific for JNK1, JNK2 and JNK3 are described in Examples 3, 4 and 5, respectively. The probes were radiolabelled by means well known in the art (see, e.g., Short Protocols in Molecular Biology, 2nd Ed., Ausubel et al., Eds., John Wiley & Sons, New York, 1992, pages 3-11 to 2-3-44 and 4-17 to 4-18; Ruth, Chapter 6 In: Methods in Molecular Biology, Vol. 26: Protocols for Oligonucleotide Conjugates, Agrawal, ed., Humana Press Inc., Totowa, N.J., 1994, pages 167-185; and Chapter 10 In: Molecular Cloning: A Laboratory Manual, 2nd Ed., Sambrook et al., Eds., pages 10.1-10.70). The blots were stripped and reprobed with a ^32P-labeled glyceraldehyde 3-phosphate dehydrogenase (G3PDH) probe (Clontech Laboratories, Inc., Palo Alto, Calif.) in order to confirm equal loading of RNA and to allow the levels of JNK transcripts to be normalized with regard to the G3PDH signals.
A549 cells were grown in T-75 flasks until 80-90% confluent. At this time, the cells were washed twice with 10 mL of media (DMEM), followed by the addition of 5 mL of DMEM containing 20 μg/mL of LIPOFECTIN™ (i.e., 1:1 (w/w) DOTMA/DOPE, Life Technologies, Gaithersburg, Md.; DOTMA=N-[1-(2,3-dioleyoxy)propyl]-N,N,N-trimethylammonium chloride; DOPE=dioleoyl phosphatidylethanolamine). The oligonucleotides were added from a 10 μM stock solution to a final concentration of 400 nM, and the two solutions were mixed by swirling the flasks. As a control, cells were treated with LIPOFECTIN™ without oligonucleotide under the same conditions and for the same times as the oligonucleotide-treated samples. After 4 hours at 37° C., the medium was replaced with fresh DMEM containing 10% serum. The cells were allowed to recover for 18 hours. Total cellular RNA was then extracted in guanidinium, subject to gel electrophoresis and transferred to a filter according to techniques known in the art (see, e.g., Chapter 7 In: Molecular Cloning: A Laboratory Manual, 2nd Ed., Sambrook et al., Eds., pages 7.1-7.87, and Short Protocols in Molecular Biology, 2nd Ed., Ausubel et al., Eds., John Wiley & Sons, New York, 1992, pages 2-24 to 2-30 and 4-14 to 4-29). Filters were typically hybridized overnight to a probe specific for the particular JNK gene of interest in hybridization buffer (25 mM KPO4, pH 7.4; 5×SSC; 5× Denhardt's solution, 100 μg/ml Salmon sperm DNA and 50% formamide) (Alahari et al., Nucl. Acids Res., 1993, 21, 4079). This was followed by two washes with 1×SSC, 0.1% SDS and two washes with 0.25×SSC, 0.1% SDS. Hybridizing bands were visualized by exposure to X-OMAT AR film and quantitated using a PHOSPHORIMAGER™ essentially according to the manufacturer's instructions (Molecular Dynamics, Sunnyvale, Calif.)
B. JNK1-specific probes: In initial screenings of a set of oligonucleotides derived from the JNK1 sequence (Table 2) for biological activity, a cDNA clone of JNK1 (Derijard et al., Cell, 1994, 76, 1025) was radiolabeled and used as a JNK1-specific probe in Northern blots. […]

JNK1 protein = assay: Western assay of JNK1 protein levels in A549 cells; details: 300 nM for 20 hours then 200 nM for 4 hours
Method: as §1
Western Assays: A549 cells were grown and treated with oligonucleotides as described above. Cells were lysed, and protein extracts were electrophoresed (SDS-PAGE) and transferred to nitrocellulose filters by means known in the art (see, e.g., Chapter 18 In: Molecular Cloning: A Laboratory Manual, 2nd Ed., Sambrook et al., Eds., pages 18.34, 18.47-18.54 and 18.60-18.75)). The amount of each JNK protein was determined by using a primary antibody that specifically recognizes the appropriate JNK protein. The primary antibodies specific for each JNK protein are described in the appropriate Examples. The primary antibodies were detected by means well known in the art (see, e.g., Short Protocols in Molecular Biology, 2nd Ed., Ausubel et al., Eds., John Wiley & Sons, New York, 1992, pages 10-33 to 10-35; and Chapter 18 In: Molecular Cloning: A Laboratory Manual, 2nd Ed., Sambrook et al., Eds., pages 18.1-18.75 and 18.86-18.88) and quantitated using a PHOSPHORIMAGER™ essentially according to the manufacturer's instructions (Molecular Dynamics, Sunnyvale, Calif.).
F. Western Assays: In order to assess the effect of oligonucleotides targeted to JNK1 mRNAs on JNK1 protein levels, Western assays were performed essentially as described above in Example 2, with the following exception(s) and/or modification(s). A primary antibody that specifically binds to JNK1 (catalog No. sc-474-G) was purchased from Santa Cruz Biotechnology, Inc. (Santa Cruz, Calif.; other JNK1-specific antibodies are available from StressGen Biotechnologies, Inc., Victoria, BC, Canada; and Research Diagnostics, Inc., Flanders, N.J.). In this experiment, cells were grown and treated with oligonucleotide at 300 nM for the initial 20 hours and then at 200 nM for 4 hours. At t=48 h, aliquots were removed for Northern and Western analyses, and fresh media was added to the cells. Aliquots for analysis were also taken at t=72 h. The samples from t=48 h and t=72 h were analyzed using the Northern and Western assays described above.

[1] = JNK1 mRNA, chemically modified oligonucleotides, dose 100 nM
[2] = JNK1 mRNA, chemically modified oligonucleotides, dose 400 nM
[3] = JNK1 mRNA time course, t=0 h after 4 hour treatment
[4] = JNK1 mRNA time course, time 272 h [sic] (t=72 h in text)

Substance	Normalized % Control (JNK1 mRNA; [1])	Normalized % Control (JNK1 mRNA; [2])	RNA % Control (JNK1 mRNA; JNK1 mRNA, t = 48 h)	RNA % Inhibition (JNK1 mRNA; JNK1 mRNA, t = 48 h)	RNA % Control (JNK1 mRNA; JNK1 mRNA, t = 72 h)	RNA % Inhibition (JNK1 mRNA; JNK1 mRNA, t = 72 h)	Protein % Control (JNK1 protein; t = 48 h)	Protein % Control (JNK1 protein; t = 72 h)	also measured
CTTTCCGTTGGACCCCTGGG (phosphorothioate, 2'-MOE gapmer, further chemistry not given here) [ISIS 18076, scrambled control for ISIS 15346; 2′-methoxyethoxy gapmer, phosphorothioate throughout, reference compound]	–	–	–	–	–	–	–	–	percent hypodiploid cells (a measure of apoptosis) (HUVEC): 8% and 10% and 11%
15351 (antisense CTCTCTGTAGGCCCGCTTGG; sugars from the 5' end e11 d9, [5mC] at 1, 3, 5, linkages o10 s9 (s phosphorothioate, o phosphodiester), methylation of C not given here) [compound 15351]	45.1%	39.8%	26.9%	73.1%	46.1%	53.9%	52.4%	37.0%	–
12539 (antisense CTCTCTGTAGGCCCGCTTGG; DNA, all phosphorothioate, methylation of C not given here) [compound 12539]	56.4%	26.7%	6.7%	–	11.7%	–	44.3%	29.2%	Normalized % Control (JNK1 mRNA; JNK1 mRNA dose response, 50 nM): 70.3%; Normalized % Control (JNK1 mRNA; JNK1 mRNA dose response, 100 nM): 51.6%; Normalized % Control (JNK1 mRNA; JNK1 mRNA dose response, 200 nM): 22.4%; Normalized % Control (JNK1 mRNA; JNK1 mRNA dose response, 400 nM): 11.1%; % INHIBITION (JNK1 mRNA; [3]): 85.9%; Normalized % Control (JNK1 mRNA; [3]): 14.1%; % INHIBITION (JNK1 mRNA; JNK1 mRNA time course, t=4 h): 94.1%; Normalized % Control (JNK1 mRNA; JNK1 mRNA time course, t=4 h): 5.9%; % INHIBITION (JNK1 mRNA; JNK1 mRNA time course, t=12 h): 88.4%; Normalized % Control (JNK1 mRNA; JNK1 mRNA time course, t=12 h): 11.6%; % INHIBITION (JNK1 mRNA; JNK1 mRNA time course, t=48 h): 79.0%; Normalized % Control (JNK1 mRNA; JNK1 mRNA time course, t=48 h): 21.0%; % INHIBITION (JNK1 mRNA; [4]): 58.5%; Normalized % Control (JNK1 mRNA; [4]): 41.5%; % EXPRESSION (JNK1 mRNA; JNK1 mRNA, A549 cells, 400 nM oligonucleotide, relative to LIPOFECTIN-only control): 9%
15348 (antisense CTCTCTGTAGGCCCGCTTGG; sugars from the 5' end e11 d9, [5mC] at 1, 3, 5, all phosphorothioate, methylation of C not given here) [compound 15348]	30.4%	32.9%	24.3%	75.7%	28.0%	72.0%	58.3%	41.7%	Protein % Inhibition (JNK1 protein; t = 48 h): 41.7%; Protein % Inhibition (JNK1 protein; t = 72 h): 58.3%
